Data published in ChEMBL document CHEMBL3351500, “Fragment-based identification and optimization of a class of potent pyrrolo[2,1-f][1,2,4]triazine MAP4K4 inhibitors” (Bioorg Med Chem Lett, 2014).

Legend:
Format in all cases: ADME, organism-based
[1] = Volume of distribution at steady state in mouse plasma at 1 mg/kg, iv; set-up: dose 1 mg/kg, route intravenous; conditions: read-out: Vdss
[2] = Oral bioavailability in mouse plasma at 25 mg/kg
[3] = Clearance in mouse plasma at 1 mg/kg, iv; set-up: dose 1 mg/kg, route intravenous

Vd [1] [L/kg] | bioavailability [2] [%] | clearance [3] [mL/min/kg] | Structure (SMILES)
2 | 16 | 22 | CC(C)(O)Cn1cc(-c2ccc(-c3cc4c(Nc5ccncc5)ncnn4c3)cc2)cn1
1 | 6 | 25 | CS(=O)(=O)c1ccc(-c2cc3c(Nc4ccncc4)ncnn3c2)cc1
15 | – | 78 | CN1CCN(c2ccc(-c3cc4c(Nc5ccncc5)ncnn4c3)cn2)CC1
